According to publication PMC8409943, “Study on mechanism of low bioavailability of black tea theaflavins by using Caco-2 cell monolayer” (Drug Delivery, 2021):
Where two headings read alike, the source gives them in different places.

Key:
[1] = tested on: Caco-2 cells; assay: Cytotoxicity study by CCK-8 method; format: cell-based, Human; conditions: 24 h
Experimental: Standard stock solutions (1000 μM) of each theaflavin were prepared in 0.1% dimethyl sulfoxide (DMSO) in deionized water, and diluted with fresh DMEM to 100, 200, 300, 400, and 500 µmol/L respectively. Each inhibitor was prepared as instructions. The cytotoxicity of theaflavins and four inhibitors of multidrug resistant associated proteins to Caco-2 cells was examined by CCK-8 method (Song et al., [2014]). Briefly, Caco-2 cells were inoculated onto 96-well microtiter plates at a density of 1 × 10^4 cells per well. After incubation at 37 °C for 24 h, cells were incubated for another 24 h with different concentrations of theaflavins, followed by adding 10 μL CCK-8 solution and 1 h incubation at 37 °C. The absorbance (OD) value was determined at 450 nm using a microplate reader (ELX-800, Bio-Tek Instruments Inc., Winooski, USA). Four inhibitors were used in this study: Vep, inhibitor of P-gp; CsA, inhibitor and substrate of P-gp; MK-571, inhibitor of MRP1, MRP2 and MRP3; FTC, inhibitor of BCRP (Silbermann et al., [1989]; König et al., [1999]; Renes et al., [1999]; Ali et al., [2017]). The cytotoxicity of Vep, CsA, MK-571 or FTC was also determined by CCK-8 assay. […] To determine the effects of inhibitors on the cytotoxicity of theaflavins, cells were incubated with both different theaflavin monomers (100, 200, 300, 400, and 500 μM) and different inhibitors. IC50, the half inhibitory concentration, was calculated from the cell viability. The cell viability was calculated by the following equation: (1) Cell viability (%)=(ODsample− ODblank)/(ODcontrol− ODblank)×100% where ODsample is the absorbance value of cell + sample + complete medium; ODblank, the absorbance value of complete medium; ODcontrol, the absorbance value of cell + complete medium.

[2] = Transepithelial transport of theaflavins across Caco-2 cell monolayers, with or without efflux transporter inhibitors; format: in vitro ADME, Human; conditions: human; for recovery at 2 h, 200 μM: Caco-2, Caco-2 monolayers, after 2 h incubation; for efflux ratio at 2 h, 200 μM / Papp A→B at 2 h, 200 μM / Papp B→A at 2 h, 200 μM: 2 h incubation
Experimental: (§1) For transport studies, Caco-2 cells were seeded at a density of 3 × 10^5 cells per well in Transwell® inserts (polycarbonate membrane, 24 mm i.d., 0.4 μm pore size, Corning Costar Corp., NY, USA) in 6-well plates (Zhang et al., [2004]). […] The inserts were washed twice with HBSS buffer and equilibrated at 37 °C for 30 min. Standard stock solutions of each theaflavin were diluted to 200 μM with HBSS. For absorptive transport, theaflavins in 1.5 mL HBSS was added into the AP side and 2.6 mL HBSS was added into the BL side of all inserts. For secretory transport, 1.5 mL HBSS and 2.6 mL theaflavins in HBSS were added into AP side and BL side, respectively. Samples were collected from the receiving chamber after 0.5, 1, 2, 3, or 4 h incubation and then were lyophilized at −110 °C in a CoolSafe freeze dryer (LaboGene ApS, Bjarkesvej, Denmark) for HPLC analysis. The recovery rate of theaflavins in the transport was calculated from the above Equation (2).
(§2) Prior to transport inhibition experiment, cells were preincubated for 30 min with 100 μM Vep, 100 μM CsA, 100 μM MK-571, or 10 μM FTC in both sides (Vaidyanathan & Walle, [2001]; Wang et al., [2008]). Then, the absorptive and secretory experiments were performed in the presence of inhibitors as described above. Samples were collected from the receiving chamber after 2 h incubation and then were lyophilized at −110 °C for HPLC analysis.
(§3) The apparent permeability coefficient (Papp, cm/s) was calculated as follows: (3) Papp= dQ/dt×V/(A×C0) where dQ/dt is the variation in concentration on the receiving side over time (μM/s); V, the volume of the solution collected from the receiving chamber (cm^3); A, the area of the membrane (4.67 cm^2); C0, the initial concentration of theaflavins in the donor chamber (μM).
(§4) The efflux ratio was calculated as follows: (4) Efflux ratio= Papp(BL−AP)/Papp(AP−BL) where Papp, apparent permeability coefficient; AP-BL, apical to basolateral transport; BL-AP, basolateral to apical transport.

[3] = tested on: Caco-2 cell monolayers; assay: as above; format: in vitro ADME, Human; conditions: absorptive transport, with verapamil vs control, 2 h
Experimental: as §1, §2, §3, §4

[4] = tested on: MRP1; assay: Western blot, protein level of MRP1; format: cell-based, Human; conditions: Caco-2 cells, 200 μM, 2 h, normalized to β-actin, vs control
Experimental: (§5) Cell lysates were prepared with RIPA lysis buffer. […] Cell protein (50 μg) was loaded onto SDS polyacrylamide gel (5% stacking gel; 8% separating gel) and separated by electrophoresis for 1.5 h at 20 mA. Next, the separated proteins were transferred onto the PVDF membrane in ice bath for 1.5 h at 120 mA, followed by blocking the membrane with 5% nonfat milk in Tris-buffered saline containing 0.1% Tween-20 (TBST) for 1 h at room temperature. After blocking, the blots were incubated overnight at 4 °C with the primary antibody of P-gp, MRP1, MRP2, MRP3, BCRP (1:200) or β-actin (1:40,000), followed by washing with TBST and incubation for 1 h at room temperature with HRP-conjugated goat anti-rabbit (1:3,000). Immunoreactive proteins were visualized by the ECL detection system, band intensity was quantified by Image Lab (Bio-Rad, CA, USA), and the protein contents were normalized to β-actin.

[5] = tested on: BCRP; assay: Western blot, protein level of BCRP; format: cell-based, Human; conditions: Caco-2 cells, 200 μM, 2 h, normalized to β-actin, vs control
Experimental: as §5

[6] = tested on: Caco-2 monolayers; assay: HPLC-MS/MS identification of metabolites in the absorptive transport of Caco-2 monolayers; format: in vitro ADME, Human; conditions: 200 µM, 2 h
Experimental: TF3G, TF3’G and TFDG were dissolved in DMSO (≤0.5%), and then, diluted with HBSS. Caco-2 cells were incubated with 200 µM TF3G, TF3’G and TFDG at 37 °C for 2 h. Samples collected from both AP side and BL side were measured by HPLC with MS detection, and the metabolites were determined in terms of the standard TF, TF3G, TF3’G, TFDG, and gallic acid (Table S2).

[7] = Stability (recovery rate) of theaflavins in HBSS and DMEM in the absence of cells; conditions: 2 h

Q: Which results are given for `O=C(O[C@@H]1Cc2c(O)cc(O)cc2O[C@@H]1c1cc(O)c(O)c2c(=O)c(O)cc([C@H]3Oc4cc(O)cc(O)c4C[C@H]3O)cc12)c1cc(O)c(O)c(O)c1` [TF3’G, theaflavin-3’-gallate]?
A: IC50 ([1]; + CsA): 575 ± 84.3 µM; IC50 ([1]; + FTC): 432 ± 30.7 µM; IC50 ([1]; + MK-571): 424 ± 35 µM; IC50 ([1]; + VEP): 467 ± 53.3 µM; IC50 ([1]; Homo sapiens, Ctrl (no inhibitor)): 521 ± 31.9 µM; recovery at 2 h, 200 μM ([2]; apical to basolateral, read-out: recovery of theaflavins in absorptive transport): 31.8%; recovery at 2 h, 200 μM ([2]; basolateral to apical, read-out: recovery of theaflavins in secretory transport): 31.6%; efflux ratio at 2 h, 200 μM ([2]; Caco-2, Papp(BL−AP)/Papp(AP−BL), Ctrl (no inhibitor)): 1.62 ± 0.15; Papp A→B at 2 h, 200 μM ([2]; Caco-2, absorptive transport, 200 μM theaflavin in HBSS, Ctrl (no inhibitor)): 0.044 ± 0.003 ×10⁻⁶ cm/s; Papp B→A at 2 h, 200 μM ([2]; Caco-2, secretory transport, 200 μM theaflavin in HBSS, Ctrl (no inhibitor)): 0.072 ± 0.003 ×10⁻⁶ cm/s; efflux ratio at 2 h, 200 μM ([2]; Caco-2, with 10 μM FTC (BCRP inhibitor), + 10 μM FTC (BCRP inhibitor)): 1.26 ± 0.11; Papp A→B at 2 h, 200 μM ([2]; Caco-2, with 10 μM FTC (BCRP inhibitor), absorptive transport, + 10 μM FTC (BCRP inhibitor)): 0.054 ± 0.003 ×10⁻⁶ cm/s; Papp B→A at 2 h, 200 μM ([2]; Caco-2, with 10 μM FTC (BCRP inhibitor), secretory transport, + 10 μM FTC (BCRP inhibitor)): 0.067 ± 0.002 ×10⁻⁶ cm/s; efflux ratio at 2 h, 200 μM ([2]; Caco-2, with 100 μM CsA (P-gp inhibitor and substrate), + 100 μM CsA (P-gp inhibitor and substrate)): 1.55 ± 0.14; Papp A→B at 2 h, 200 μM ([2]; Caco-2, with 100 μM CsA (P-gp inhibitor and substrate), absorptive transport, + 100 μM CsA (P-gp inhibitor and substrate)): 0.054 ± 0.003 ×10⁻⁶ cm/s; Papp B→A at 2 h, 200 μM ([2]; Caco-2, with 100 μM CsA (P-gp inhibitor and substrate), secretory transport, + 100 μM CsA (P-gp inhibitor and substrate)): 0.084 ± 0.003 ×10⁻⁶ cm/s; efflux ratio at 2 h, 200 μM ([2]; Caco-2, with 100 μM Vep (P-gp inhibitor), + 100 μM Vep (P-gp inhibitor)): 1.08 ± 0.1; Papp A→B at 2 h, 200 μM ([2]; Caco-2, with 100 μM Vep (P-gp inhibitor), absorptive transport, + 100 μM Vep (P-gp inhibitor)): 0.055 ± 0.003 ×10⁻⁶ cm/s; Papp B→A at 2 h, 200 μM ([2]; Caco-2, with 100 μM Vep (P-gp inhibitor), secretory transport, + 100 μM Vep (P-gp inhibitor)): 0.059 ± 0.002 ×10⁻⁶ cm/s; fold increase in the influx [3]: 1.24 fold; increase of protein level of MRP1 [4]: increased; increase of protein level of BCRP [5]: increased; conjugated metabolites (glucuronidated, sulfated and methylated) ([6]; AP side or BL side of Caco-2 monolayers): not detected; metabolites identified ([6]; absorptive transport, AP side and BL side): GA (peak M3, Figure 5(G,H)) and TF; degraded due to the structural instability [7]: 22.1%
